The values that follow come from patent US20220117993A1, “Compounds Useful in HIV Therapy” (GlaxoSmithKline Intellectual Property (No. 2) Limited, priority 2018, published 2022).

In assay [1] the test system is PSV with methionine 184 to valine (M184V) substitution in the reverse transcriptase gene. Description: microbe, parasite or virus in culture. Type of assay: cell-based, HIV. The conditions noted are these: read-out: M184V IC50.
Assay [2] has as its system wild-type NL4-3 replication defective pseudovirus (PSV). Description: microbe, parasite or virus in culture. Type of assay: cell-based. The conditions noted are these: NL43, 72 h, U373 cells expressing human CD4 and CXCR4 or CCR5, luciferase signal after 3 days, mean IC50, read-out: WT IC50.
Setting [3] is: Human immunodeficiency virus 1, 72 h.

Like-named read-outs stand apart in the source and are kept apart here.

In the case of `C#C[C@]1(CO)O[C@@H](n2cnc3c(NC(=O)CCCCCCCCCCCCC)nc(F)nc32)C[C@@H]1OC(C)=O` [Example 14, (2R,3S,5R)-2-ethynyl-5-(2-fluoro-6-tetradecanamido-9H-purin-9-yl)-2-(hydroxymethyl)tetrahydrofuran-3-yl acetate], the IC50 – broadly, the concentration at which inhibition is half-maximal – is 68 nM in assay [1] (setting [3]) and 11.4 nM in assay [2].

In the case of `C#C[C@]1(CO)O[C@@H](n2cnc3c(N)nc(F)nc32)C[C@@H]1OC(=O)C(C)CCCCC` (stereo partly drawn) [Example 11, (2R,3S,5R)-5-(6-amino-2-fluoro-9H-purin-9-yl)-2-ethynyl-2-(hydroxymethyl)tetrahydrofuran-3-yl 2-methylheptanoate], the results for the half-maximal inhibitory concentration (IC50) in assay [1] (setting [3]) and in assay [2] were 17 nM and 2.9 nM, respectively.

Take `C#C[C@]1(CO)O[C@@H](n2cnc3c(NC(=O)CCCCCC)nc(F)nc32)C[C@@H]1OC(=O)CCCCCC` [Example 25, (2R,3S,5R)-2-ethynyl-5-(2-fluoro-6-heptanamido-9H-purin-9-yl)-2-(hydroxymethyl)tetrahydrofuran-3-yl heptanoate]: the 50% inhibitory concentration (IC50) in assay [1] (setting [3]) stood at 43.9 nM; in assay [2], 9.4 nM.

For `C#C[C@]1(CO)O[C@@H](n2cnc3c(N)nc(F)nc32)C[C@@H]1OC(C)=O` [Example 1, (2R,3S,5R)-5-(6-amino-2-fluoro-9H-purin-9-yl)-2-ethynyl-2-(hydroxymethyl)tetrahydrofuran-3-yl acetate], the IC50 in assay [1] (setting [3]) was found to be 538 nM; in assay [2] it was 106 nM.

As for `C#C[C@]1(CO)O[C@@H](n2cnc3c(N)nc(F)nc32)C[C@@H]1OC(=O)C(C)(C)CCC` [Example 18, (2R,3S,5R)-5-(6-amino-2-fluoro-9H-purin-9-yl)-2-ethynyl-2-(hydroxymethyl)tetrahydrofuran-3-yl 2,2-dimethylpentanoate], the IC50 is 168 nM in assay [1] (setting [3]) and 46.4 nM in assay [2].

For the compound `C#C[C@]1(CO)O[C@@H](n2cnc3c(N)nc(F)nc32)C[C@@H]1OC(=O)CCC` [Example 20, (2R,3S,5R)-5-(6-amino-2-fluoro-9H-purin-9-yl)-2-ethynyl-2-(hydroxymethyl)tetrahydrofuran-3-yl butyrate], the half-maximal inhibitory concentration (IC50) in assay [1] (setting [3]) was found to be 124 nM; in assay [2] it was 27.7 nM.

`C#C[C@]1(CO)O[C@@H](n2cnc3c(N)nc(F)nc32)C[C@@H]1OC(=O)C1CCCCC1` [Example 16, (2R,3S,5R)-5-(6-amino-2-fluoro-9H-purin-9-yl)-2-ethynyl-2-(hydroxymethyl)tetrahydrofuran-3-yl cyclohexanecarboxylate]: the values for the IC50 in assay [1] (setting [3]) and in assay [2] were 19 nM and 3.9 nM, respectively.

As for `C#C[C@]1(CO)O[C@@H](n2cnc3c(N)nc(F)nc32)C[C@@H]1O` [EFdA, 4′-ethynyl-2-fluoro-2′-deoxyadenosine, reference compound], the 50% inhibitory concentration (IC50) was found to be 35.1 nM in assay [1] (U373 cells expressing human CD4 and CXCR4 or CCR5, luciferase signal after 3 days, mean IC50); 6.5 nM in assay [2].

Take `C#C[C@]1(COC(=O)OCC)O[C@@H](n2cnc3c(N)nc(F)nc32)C[C@@H]1OC(=O)CCCCCCCCC` [Example 9, (2R,3S,5R)-5-(6-amino-2-fluoro-9H-purin-9-yl)-2-(((ethoxycarbonyl)oxy)methyl)-2-ethynyltetrahydrofuran-3-yl decanoate]: the 50% inhibitory concentration (IC50) in assay [1] (setting [3]) stood at 53 nM; in assay [2], 11.4 nM.

For the compound `C#C[C@]1(CO)O[C@@H](n2cnc3c(N)nc(F)nc32)C[C@@H]1OC(=O)[C@H]1CC[C@H](C(C)(C)C)CC1` [Example 22, (2R,3S,5R)-5-(6-amino-2-fluoro-9H-purin-9-yl)-2-ethynyl-2-(hydroxymethyl)tetrahydrofuran-3-yl (1r,4S)-4-(tert-butyl)cyclohexane-1-carboxylate], the IC50 was 9.3 nM in assay [1] (setting [3]) and 2.6 nM in assay [2].

As for `C#C[C@]1(CO)O[C@@H](n2cnc3c(N)nc(F)nc32)C[C@@H]1OC(=O)CCCCCCCCCCCCCCCCCCC` [Example 6, (2R,3S,5R)-5-(6-amino-2-fluoro-9H-purin-9-yl)-2-ethynyl-2-(hydroxymethyl)tetrahydrofuran-3-yl icosanoate], the 50% inhibitory concentration (IC50) in assay [1] (setting [3]) is 3280 nM; in assay [2], 635 nM.

Turning to `C#C[C@]1(CO)O[C@@H](n2cnc3c(N)nc(F)nc32)C[C@@H]1OC(=O)C(C)(C)C` [Example 13, (2R,3S,5R)-5-(6-amino-2-fluoro-9H-purin-9-yl)-2-ethynyl-2-(hydroxymethyl)tetrahydrofuran-3-yl pivalate], the half-inhibitory concentration (IC50) in assay [1] (setting [3]) amounted to 1280 nM; in assay [2] it was 262 nM.

With `C#C[C@]1(CO)O[C@@H](n2cnc3c(N)nc(F)nc32)C[C@@H]1OC(=O)C(CCCC)CCCCCC` (stereo partly drawn) [Example 17, (2R,3S,5R)-5-(6-amino-2-fluoro-9H-purin-9-yl)-2-ethynyl-2-(hydroxymethyl)tetrahydrofuran-3-yl 2-butyloctanoate], the IC50 turned out to be 598 nM in assay [1] (setting [3]) and 145 nM in assay [2].

With `C#C[C@]1(CO)O[C@@H](n2cnc3c(N)nc(F)nc32)C[C@@H]1OC(=O)CCCCCC` [Example 4, (2R,3S,5R)-5-(6-amino-2-fluoro-9H-purin-9-yl)-2-ethynyl-2-(hydroxymethyl)tetrahydrofuran-3-yl heptanoate], the IC50 turned out to be 24 nM in assay [1] (setting [3]) and 4.1 nM in assay [2].

As for `C#C[C@]1(CO)O[C@@H](n2cnc3c(N)nc(F)nc32)C[C@@H]1OC(=O)c1ccccc1` [Example 19, (2R,3S,5R)-5-(6-amino-2-fluoro-9H-purin-9-yl)-2-ethynyl-2-(hydroxymethyl)tetrahydrofuran-3-yl benzoate], the results for the IC50 in assay [1] (setting [3]) and in assay [2] were 197 nM and 40.8 nM, respectively.

On to `C#C[C@]1(COC(=O)OCCCCCC)O[C@@H](n2cnc3c(N)nc(F)nc32)C[C@@H]1OC(=O)CCCCCCCCCCCCC` [Example 23, (2R,3S,5R)-5-(6-amino-2-fluoro-9H-purin-9-yl)-2-ethynyl-2-((((hexyloxy)carbonyl)oxy)methyl)tetrahydrofuran-3-yl tetradecanoate], for which the IC50 in assay [1] (setting [3]) was 1130 nM; in assay [2] it was 1090 nM.

`C#C[C@]1(COC(=O)OCC)O[C@@H](n2cnc3c(N)nc(F)nc32)C[C@@H]1OC(=O)CCCCCCCCCCCCCCCCC` [Example 24, (2R,3S,5R)-5-(6-amino-2-fluoro-9H-purin-9-yl)-2-(((ethoxycarbonyl)oxy)methyl)-2-ethynyltetrahydrofuran-3-yl stearate]: the values for the half-maximal inhibitory concentration (IC50) in assay [1] (setting [3]) and in assay [2] were 2120 nM and 1270 nM, respectively.

In the case of `C#C[C@]1(CO)O[C@@H](n2cnc3c(N)nc(F)nc32)C[C@@H]1OC(=O)[C@H]1CC[C@H](CCCCC)CC1` [Example 12, (2R,3S,5R)-5-(6-amino-2-fluoro-9H-purin-9-yl)-2-ethynyl-2-(hydroxymethyl)tetrahydrofuran-3-yl (1s,4S)-4-pentylcyclohexane-1-carboxylate], the IC50 was found to be 10.7 nM in assay [1] (setting [3]) and 1.8 nM in assay [2].

Regarding `C#C[C@]1(CO)O[C@@H](n2cnc3c(NC(=O)OCC)nc(F)nc32)C[C@@H]1OC(=O)CCCCCCCCC` [Example 8, (2R,3S,5R)-5-(6-((ethoxycarbonyl)amino)-2-fluoro-9H-purin-9-yl)-2-ethynyl-2-(hydroxymethyl)tetrahydrofuran-3-yl decanoate], the IC50 came out at 460 nM in assay [1] (setting [3]) and 165 nM in assay [2].

Turning to `C#C[C@]1(CO)O[C@@H](n2cnc3c(NC(=O)CCCCCCCCCCCCC)nc(F)nc32)C[C@@H]1OC(=O)CC(C)(C)c1c(C)cc(C)cc1OC(C)=O` [Example 28, (2R,3S,5R)-2-ethynyl-5-(2-fluoro-6-tetradecanamido-9H-purin-9-yl)-2-(hydroxymethyl)tetrahydrofuran-3-yl 3-(2-acetoxy-4,6-dimethylphenyl)-3-methylbutanoate], the values for the IC50 in assay [1] (setting [3]) and in assay [2] were 153 nM and 41.5 nM, respectively.

For the compound `C#C[C@]1(CO)O[C@@H](n2cnc3c(NC(=O)CCC)nc(F)nc32)C[C@@H]1OC(=O)CCC` [Example 26, (2R,3S,5R)-5-(6-butyramido-2-fluoro-9H-purin-9-yl)-2-ethynyl-2-(hydroxymethyl)tetrahydrofuran-3-yl butyrate], the results for the half-maximal inhibitory concentration (IC50) in assay [1] (setting [3]) and in assay [2] were 465 nM and 102 nM, respectively.

With `C#C[C@]1(CO)O[C@@H](n2cnc3c(NC(=O)CCCCCCCCC)nc(F)nc32)C[C@@H]1OC(=O)CCCCCCCCC` [Example 27, (2R,3S,5R)-5-(6-decanamido-2-fluoro-9H-purin-9-yl)-2-ethynyl-2-(hydroxymethyl)tetrahydrofuran-3-yl decanoate], the figures for the IC50 in assay [1] (setting [3]) and in assay [2] were 28.6 nM and 6.8 nM, respectively.

In the case of `C#C[C@]1(CO)O[C@@H](n2cnc3c(N)nc(F)nc32)C[C@@H]1OC(=O)Cc1ccccc1` [Example 10, (2R,3S,5R)-5-(6-amino-2-fluoro-9H-purin-9-yl)-2-ethynyl-2-(hydroxymethyl)tetrahydrofuran-3-yl 2-phenylacetate], the IC50 in assay [1] (setting [3]) worked out at 26.2 nM; in assay [2] it was 7.2 nM.

For `C#C[C@]1(CO)O[C@@H](n2cnc3c(N)nc(F)nc32)C[C@@H]1OC(=O)C(CCCCCC)CCCCCCCC` (stereo partly drawn) [Example 15, (2R,3S,5R)-5-(6-amino-2-fluoro-9H-purin-9-yl)-2-ethynyl-2-(hydroxymethyl)tetrahydrofuran-3-yl 2-hexyldecanoate], the half-inhibitory concentration (IC50) is 3120 nM in assay [1] (setting [3]) and 555 nM in assay [2].

On to `C#C[C@]1(CO)O[C@@H](n2cnc3c(N)nc(F)nc32)C[C@@H]1OC(=O)CCCCCCCCC` [Example 3, (2R,3S,5R)-5-(6-amino-2-fluoro-9H-purin-9-yl)-2-ethynyl-2-(hydroxymethyl)tetrahydrofuran-3-yl decanoate], for which the IC50 in assay [1] (setting [3]) is 7 nM; in assay [2], 1.3 nM.

As to `C#C[C@]1(CO)O[C@@H](n2cnc3c(N)nc(F)nc32)C[C@@H]1OC(=O)CCCCCCC/C=C\C/C=C\C/C=C\CC` [Example 7, (9Z,12Z,15Z)-(2R,3S,5R)-5-(6-amino-2-fluoro-9H-purin-9-yl)-2-ethynyl-2-(hydroxymethyl)tetrahydrofuran-3-yl octadeca-9,12,15-trienoate], the figures for the half-inhibitory concentration (IC50) in assay [1] (setting [3]) and in assay [2] were 36.4 nM and 7.1 nM, respectively.
